# Entries after “also recorded” stand apart in the source; their conditions may differ.
# Tests used:
# U87MG tumor = U87MG tumor growth and survival in mice after various treatments; type: in vivo, nude mouse; conditions: for median survival time: mice with U87MG tumor, n=6 per group
# From the text: In all different experimental groups (a and b in FIG. 10), the overall survival (OS) of mice treated with TMZ and compound 27 is the best. […] However, mouse death caused by glioma is reduced only 20 days […] treatment. After this period of time, the survival rates of the in-situ U87 heterogeneous tumor of the two single drug groups decreases rapidly due to malignant glioma.
# [1] = Plasma pharmacokinetics in mice determined by GLMSD; type: in vivo, mouse; conditions: ip, TMZ injected into abdominal cavity of mouse, plasma, average of 8 mice
# Procedure: It can be seen from FIG. 8-1 that the GLMSD platform can specifically acquire the pharmacokinetic data of small-molecule compound 27. Competitive advantages of GLMSD in pharmacokinetic research: (1) a complete drug blood concentration curve of each individual may be tracked; and (2) the total number of mice used in the test is reduced. Since the blood sample consumption of the GLMSD method is low (10 μL of blood per time point), one mouse can be used for completing the entire pharmacokinetic curve (blood sampling at 11 time points within 24 hours, and the minimum interval being 0.25 hour) of a drug.
# Based on the advantage that the complete PK curve can be tested by means of the GLMSD, we observe that 3 (#2, #3 and #4) in 8 mice have the characteristic re-absorption peak of this small-molecule inhibitor at the time point of 8 h, and such a characteristic re-absorption peak hardly exists in other 5 mice. This significant phenomenon is related to drug uptake differences between individuals, prompting that compound 27 may re-enter blood circulation by means of a secondary absorption pathway. In the mode of continuous multiple administration (c in FIG. 8-2), pharmacokinetic data of compound 27 (40 mg/kg) was collected from each mouse every day (1, 3, 6, and 8 hours after last administration) for 5 days. For a single dose (a in FIG. 8-2) or a continuous multi-dose (d in FIG. 8-2) administration manner, a limitation of a conventional LC-MS technology lies in obtaining a single data point of pharmacokinetics of a drug by sacrificing one mouse, whereas GLMSD can break through this limitation by providing a complete pharmacokinetic curve based on a single mouse.
# [2] = tested on: cranial nerve glioma cell U87; assay: Antiproliferative activity against cranial nerve glioma cell U87; type: cell-based; conditions: U87 cells, FIG. 14
# From the text: FIG. 14 is an antiproliferative activity test diagram of compound 8, compound 11, compound 13, and compound 21 against a cranial nerve glioma cell U87.
# hexokinase 2 (HK2) = target: T1, hexokinase 2 (HK2) (Homo sapiens, UniProt P52789); assay: HK2 activity test on GLMSD platform (graphite dots MALDI-MS); type: biochemical; conditions: for inhibitory effect on the HK2: inhibition curves FIGS. 3-7, colorimetric kit and GLMSD; for inhibition at 20 µM: read-out: inhibition rate of HK2 activity
# T1 sequence (P52789 1-917): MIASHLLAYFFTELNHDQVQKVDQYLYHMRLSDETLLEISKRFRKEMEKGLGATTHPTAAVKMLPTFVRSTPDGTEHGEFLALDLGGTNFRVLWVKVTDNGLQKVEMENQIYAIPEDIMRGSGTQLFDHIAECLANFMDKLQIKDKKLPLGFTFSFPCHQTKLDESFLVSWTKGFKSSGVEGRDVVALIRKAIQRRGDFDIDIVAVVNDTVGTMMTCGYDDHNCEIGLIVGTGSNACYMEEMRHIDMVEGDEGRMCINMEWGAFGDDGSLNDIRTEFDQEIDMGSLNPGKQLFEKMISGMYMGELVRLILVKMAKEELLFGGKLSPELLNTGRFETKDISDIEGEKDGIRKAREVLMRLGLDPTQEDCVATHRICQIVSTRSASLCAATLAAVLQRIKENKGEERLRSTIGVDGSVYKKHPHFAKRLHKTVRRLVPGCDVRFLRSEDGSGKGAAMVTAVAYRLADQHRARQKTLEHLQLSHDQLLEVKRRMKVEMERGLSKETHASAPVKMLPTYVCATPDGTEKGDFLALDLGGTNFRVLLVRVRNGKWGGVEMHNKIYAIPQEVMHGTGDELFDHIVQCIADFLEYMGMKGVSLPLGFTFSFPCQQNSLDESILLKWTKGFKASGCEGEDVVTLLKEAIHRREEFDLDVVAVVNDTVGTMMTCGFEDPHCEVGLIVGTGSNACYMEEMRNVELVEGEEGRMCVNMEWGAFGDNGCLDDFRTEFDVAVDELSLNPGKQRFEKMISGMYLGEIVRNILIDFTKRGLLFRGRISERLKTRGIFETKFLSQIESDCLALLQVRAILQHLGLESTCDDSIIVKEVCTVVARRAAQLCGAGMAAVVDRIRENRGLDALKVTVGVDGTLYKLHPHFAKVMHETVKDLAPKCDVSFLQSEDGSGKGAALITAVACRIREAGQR
# Procedure: GDs were dispersed in water at a concentration of 1 mg/mL as a matrix solution to be used. A sample was prepared by using a quick-drying method: firstly, 1 μL of matrix solution was dropped onto a target plate, and after natural drying at a room temperature in a […], 1 μL of sample to be analyzed was dropped onto a surface of the dried matrix, and after the sample was naturally dried, mass spectrometry was directly performed:
# An instrument in the MALDI-MS was a Bruker Ultraflex III TOF/TOF mass spectrometer, which was mainly in a reflection positive and negative ion mode. Nd of 355 nm for instrument parameter: YAG laser had laser energy of 30% corresponding to 57 μJ per pulse (laser pulse duration: 3 ns), a laser spot size was about 50-100 μm, each sample was repeatedly tested four times, and 3000 laser spots were accumulated in each mass spectrum. All samples were measured under the same instrumental conditions.
# an inhibition rate=(1−B/A)×100%, where • A was: a glucose concentration in a pre-reaction solution without the inhibitor-a glucose concentration in a post-reaction solution without the inhibitor, • B was: a glucose concentration in a pre-reaction solution with the inhibitor-a glucose concentration in a post-reaction solution with the inhibitor, and • a glucose concentration in the reaction solution=(mass spectrum signal strength of [glucose+Na]+/mass spectrum signal strength of [glucose-1-^13C+Na]+)×known concentration of glucose-1-^13C.
# [3] = small-molecule concentration of the inhibitor 20 μM, GLMSD
Compound,median survival time (U87MG tumor) [days],inhibitory effect on U87 [2],inhibitory effect on the HK2 (hexokinase 2 (HK2)),inhibition at 20 µM (hexokinase 2 (HK2); [3]) [%],also measured
"O=C(O)C(=O)CBr [3-BP, 3-bromopyruvic acid, reference compound]",17,–,–,–,–
"COc1ccc(CN2CCNCC2)c(OC)c1OC [TMZ, Trimetazidine, reference compound]",35,–,–,–,"glioma growth / survival rate, bioluminescence tracking (U87MG tumor; in situ U87-luciferase mice, compared with PBS): delays the growth of glioma; AUC(0-t) ([1]; read-out: AUC0-24 h): 247 µg·h/mL; Cmax ([1]; read-out: Cmax): 33700 ng/mL; half-life ([1]; read-out: T1/2 (converted)): 1.72 h; Tmax ([1]; read-out: Tmax): 0.5 h"
COc1cccc(CNCCCn2ccnc2)c1OCc1ccc(F)cc1 [compound 8],–,inhibitory effects on U87,good inhibitory effects,–,inhibition rate of HK2 activity (hexokinase 2 (HK2); [3]): 44%
Cc1c(CCC(=O)NC2CS(=O)(=O)CC2O)c(=O)oc2cc(O)ccc12 (stereo not shown) [compound 11],–,inhibitory effects on U87,good inhibition effect; also recorded: good inhibitory effects,29,–
COc1ccccc1OCC(=O)NNC(=O)CCCC(=O)NNC(=O)COc1ccccc1OC [compound 21],–,inhibitory effects on U87,good inhibitory effects,25,–

# Reference: patent publication US20230414571A1, “APPLICATION OF SMALL-MOLECULE COMPOUND IN PREPARATION OF ANTITUMOR DRUG” (SOOCHOW UNIVERSITY, priority 2021, published 2023)
